“Also recorded” adds a separate entry of the source.

The test system of the first assay is human blood bacterium (HBB). Format: cell-based.
Settings: not given
For `CSCC[C@H](N)C(=O)O` [methionine], the “effect on HBB growth in culture” value is “appears to do so less consistently”.
With `OO` [hydrogen peroxide], the “effect on HBB growth in culture” value is given as “might also be stimulated”.
titanium ethoxide: the “effect on HBB growth in culture” value is “slight stimulation”.
Take `NC12CC3CC(CC(C3)C1)C2` [amantadine, reference compound]: the “effect on HBB growth in culture” value is reported as “Little or no stimulation or inhibition”.
Take (oxidized) arachidonate: the “effect on HBB growth in culture” value is “might also be stimulated”.
Regarding `NCCCNCCCCNCCCN` [spermine], the “effect on HBB growth in culture” value is on record as “Little or no stimulation or inhibition”.
For the compound `C1COCCN1` [morpholine], the “effect on HBB growth in culture” value is reported as “slight stimulation”.
For `C[C@@H](O[C@H]1[C@H](O)[C@@H](CO)OC(O)[C@@H]1N)C(=O)O` (some centres unmarked) [muramic acid], the “effect on reduction of cell wall-defective forms” value (“effect on reduction” below) is “no effect”.
Take `N.N.O=S(=O)(O)O` [ammonium sulfate]: the “effect on HBB growth in culture” value is recorded as “Little or no stimulation or inhibition; also recorded: no effect”.
Turning to `[N-]=[N+]=[N-]` [azide, reference compound], the “effect on HBB growth in culture” value is recorded as “little effect on growth”.
Consider `CO` [methanol], for which the “effect on HBB growth in culture” value is “minimal or no stimulation of growth”.
Turning to `[Mn+2]` [manganese], the “effect on HBB growth in culture” value is “stimulated” and the “optimum concentration for stimulation of HBB growth” value was found to be 1 µg/mL.
`CCO` [ethanol]: the “effect on HBB growth in culture” value is “Some stimulation of growth”.
As for mercury, the “effect on HBB growth in culture” value is recorded as “possibly; also recorded: stimulated”.
In the case of `CC(=O)N[C@@H](CS)C(=O)O` [N-acetyl cysteine], the “effect on HBB growth in culture” value is given as “Little or no stimulation or inhibition; also recorded: no significant effect”.
As for `[Fe]` [iron], the “effect on HBB growth in culture” value is listed as “stimulated”.
For `CN(C)c1ccc2nc3ccc(=[N+](C)C)cc-3sc2c1` [methylene blue], the “effect on HBB growth in culture” value is on record as “Little or no stimulation or inhibition”.
Still for that read-out and setting: as for `CCCCO` [n-butanol], the entry is “Some stimulation of growth”; as for `CC(C)CCO` [isoamyl alcohol], “Some stimulation of growth”.
On the same count and under the same terms, as for `OCCS` [2-mercaptoethanol], the entry is “no significant effect”.

Still in this assay, the particulars now being: 2 μg/ml.
On to `C[N+](C)(C)C[C@H](O)CC(=O)[O-]` [L-carnitine], for which the “effect on HBB growth in culture” value is recorded as “Little or no stimulation or inhibition”.

The assay is the same for the next values; noted with them: 3 μg/ml.
In the case of `NCCOP(=O)(O)O` [phosphorylethanolamine], the “effect on HBB growth in culture” value was “Little or no stimulation or inhibition”.

Staying with this assay, now noted: 10 μg/ml.
`O[C@@H](CS)[C@@H](O)CS` [dithiotheitol]: the “effect on HBB growth in culture” value is “Little or no stimulation or inhibition”.
Turning to `OCCS` [2-mercaptoethanol], the “effect on HBB growth in culture” value is “Little or no stimulation or inhibition”.

Still in this assay, the particulars now being: 14 μg/ml.
For the compound `O=c1ccc2[n+]([O-])c3ccc(O)cc3oc-2c1` [resazurin], the “effect on HBB growth in culture” value is recorded as “Little or no stimulation or inhibition”.
Same read-out and setting: for `CCN(CC)CN(CC)CC` [tetraethylmethylenediamine] the value was “slight stimulation”.

The assay is the same for the next values; noted with them: 20 μg/ml.
On to `N[C@@H](CS)C(=O)O` [cysteine], for which the “effect on HBB growth in culture” value is on record as “Little or no stimulation or inhibition”.
Same read-out and setting: as for `NCCS(=O)(=O)O` [taurine], the entry is “Little or no stimulation or inhibition”.

The assay is the same for the next values; noted with them: 20 μg/ml; listed as Cysteine.
On to `N[C@@H](CS)C(=O)O` [cysteine], for which the “effect on HBB growth in culture” value is given as “appears to inhibit growth in some isolates”.

Staying with this assay, now noted: 1/14 saturated.
Consider `c1ccc(Nc2ccccc2)cc1` [diphenylamine], for which the “effect on HBB growth in culture” value is on record as “slight stimulation”.
On to `O=C(c1ccccc1)c1ccccc1` [benzophenone], for which the “effect on HBB growth in culture” value was “slight stimulation”.
As to dichlorophenylenediamine, the “effect on HBB growth in culture” value is recorded as “Little or no stimulation or inhibition”.

The same assay, now with this note: added to ½ strength medium O or RPMI.
For the compound `COP(=O)(OC)OC` [trimethyl phosphate], the “effect on HBB growth in culture” value is “minimal or no stimulation of growth”.
As for `CN(C)C` [trimethylamine], the “effect on HBB growth in culture” value was “minimal or no stimulation of growth”.

The assay is the same for the next values; noted with them: addition of cell wall precursors.
With `N[C@H](CCC[C@H](N)C(=O)O)C(=O)O` [diaminopimelic acid], the “effect on reduction” value is listed as “no effect”.
`CC(=O)N[C@H]1C(O)O[C@H](CO)[C@@H](O)[C@@H]1O[C@H](C)C(=O)O` (some centres unmarked) [N-acetylmuramic acid]: the “effect on reduction” value was “no effect”.
Regarding `CC(=O)N[C@H]1C(O)O[C@H](CO)[C@@H](O)[C@@H]1O` (some centres unmarked) [N-acetylglucosamine], the “effect on reduction” value is reported as “no effect”.
Consider `CC(=O)N[C@H]1C(O)O[C@H](CO)[C@@H](O[C@@H]2O[C@H](CO)[C@H](O)[C@H](O)[C@H]2O)[C@@H]1O` (some centres unmarked) [N-acetyllactoasamine], for which the “effect on reduction” value is “no effect”.

The assay is the same for the next values; noted with them: concentration not printed.
Turning to `O=C(CO)[C@@H](O)[C@H](O)[C@H](O)CO` [fructose], the “effect on HBB growth in culture” value is reported as “support growth”.
The same measure, in the same setting: as for `[Cr]` [chromium], the entry is “no inhibition of bacterial growth”; as for `OC[C@H]1O[C@H](OC[C@H]2O[C@H](O[C@]3(CO)O[C@H](CO)[C@@H](O)[C@@H]3O)[C@H](O)[C@@H](O)[C@@H]2O)[C@H](O)[C@@H](O)[C@H]1O` [raffinose], “support growth”.
For the compound `[Sn]` [tin], the “effect on HBB growth in culture” value was “stimulated”.
On the same count and under the same terms, as for chromium picolinate, the entry is “Little or no stimulation or inhibition”; as for silver proteinate, “Little or no stimulation or inhibition”; as for `N[C@@H](CS)C(=O)O` [cysteine], “suppresses growth of some strains; also recorded: stimulates other strains”.
Same read-out and setting: for `[Cu]` [copper] the value was “stimulated”.
Still for that read-out and setting: as for `[Zn]` [zinc], the entry is “suppresses the growth; also recorded: inhibited”.
dextran: the “effect on HBB growth in culture” value is listed as “support growth”.
For `OC[C@H]1O[C@@H](O[C@H]2[C@H](O)[C@@H](O)C(O)O[C@@H]2CO)[C@H](O)[C@@H](O)[C@H]1O` (some centres unmarked) [lactose], the “effect on HBB growth in culture” value is “support growth”.
As for `[I-].[K+]` [potassium iodide], the “effect on HBB growth in culture” value is reported as “Little or no stimulation or inhibition”.
For the compound `OC[C@H]1O[C@H](OCC2O[C@@H](O)[C@H](O)[C@@H](O)[C@@H]2O)[C@H](O)[C@@H](O)[C@H]1O` (some centres unmarked) [meilibose], the “effect on HBB growth in culture” value is reported as “support growth”.
On to `[Ag]` [silver], for which the “effect on HBB growth in culture” value is given as “stimulated”.
The same measure, in the same setting: as for `O=C(O)c1ccccn1` [picolinic acid], the entry is “Little or no stimulation or inhibition”; as for `O[C@@H](CS)[C@@H](O)CS` [dithiotheitol], “no significant effect”.
Still for that read-out and setting: for `CC(=O)N[C@H]1C(O)O[C@H](CO)[C@@H](O[C@@H]2O[C@H](CO)[C@H](O)[C@H](O)[C@H]2O)[C@@H]1O` (some centres unmarked) [N-acetyllactoasamine] the value was “some stimulation of culture growth”; for `OC[C@H]1O[C@@](CO)(O[C@H]2O[C@H](CO)[C@@H](O)[C@H](O)[C@H]2O)[C@@H](O)[C@@H]1O` [sucrose], “support growth”.
Turning to `NCCS(=O)(=O)O` [taurine], the “effect on HBB growth in culture” value is “no effect on cultures”.

The same assay, now with this note: ⅕ saturated.
As to `COC1=C(OC)C(=O)C(C/C=C(\C)CC/C=C(\C)CC/C=C(\C)CC/C=C(\C)CC/C=C(\C)CC/C=C(\C)CC/C=C(\C)CC/C=C(\C)CC/C=C(\C)CCC=C(C)C)=C(C)C1=O` [ubiquinone (Q10)], the “effect on HBB growth in culture” value was “slight stimulation”.
